Assay in all cases: inhibition of tumour cell growth, NCI panel, 48 h
For test [1], the system named is ACHN renal.
The subject of test [2] is HCC-2998 colon.
The subject of test [3] is NCI-H226 lung.
In test [4] the test system is HOP-62 NSCLC.
In test [5] the test system is CCRF-CEM leukemia.
Test [6] relates to TK-10 renal.
Test [7] has as its system SNB-19 CNS.
Test [8] relates to M19-MEL melanoma.
Test [9] relates to DMS 273 small cell lung.
The subject of test [10] is SNB-78 CNS.
Test [11] deals with DLD-1 colon.
For test [12], the system named is COLO 205 colon.
Test [13] concerns CAKI-1 renal.

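Protocol summary: plate cells (96-well), add compound at 5 concentrations, incubate 48 h, interpolate endpoints linearly. GI50 = concentration required for 50% inhibition of growth. The concentration for full growth arrest is given as TGI.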

Consider `N#CN=[N+]([O-])c1ccc(C(=O)O)cc1`, for which the TGI was 32.7 µM in [1]; greater than 100 µM in [2]; 40.9 µM in [3]; 30.7 µM in test [4]; 51.9 µM in test [5]; 31.4 µM in [6]. Moreover, the TGI in test [7] was determined as 29.8 µM.

With `CSc1nc(NC2OCC(O)C(O)C2O)c(N)c(=O)[nH]1` (stereo not drawn), the TGI in [8], in test [9], in [2], in [10], in [3] and in test [4] was greater than 100 µM in each case. Also, the TGI in test [5], in test [7], in test [11] and in [12] was greater than 100 µM throughout.

Turning to `Cc1cc2c(cc1C)OC(=O)CC2`, the TGI in [1], in test [13], in test [2], in [3], in test [4] and in test [5] was greater than 100 µM throughout. The TGI in test [6] and in [12] was greater than 100 µM in each case.

For the compound `NCCCOc1ccc([N+](=O)[O-])cc1Cl`, the TGI in test [8], in [1], in [9], in test [13], in test [2] and in [3] was greater than 100 µM throughout. The TGI in test [4], in [5], in test [6], in test [7], in [11] and in [12] was greater than 100 µM in each case.

For `CC(=O)c1ccc2c(c1)c1c(C)c3c[n+](C)ccc3c(C)c1n2C`, the TGI in [8] is 23.7 µM; in [9], 18.8 µM; in [13], greater than 76 µM; in test [2] it was greater than 100 µM; in [10], 35.3 µM; in test [3] it was 11.8 µM. In addition, the TGI in test [4] is 38.2 µM; in test [5], greater than 46.3 µM; in test [7], 5.74 µM; in test [11], greater than 100 µM; in test [12] it was greater than 100 µM.

With `C/C(N=NS(=O)(=O)c1ccccc1)=C1\C=CC=CN1O`, the TGI in test [8], in [1], in test [9], in test [13], in [2] and in test [10] was greater than 100 µM each time. The TGI in test [4], in test [5], in test [6], in [7] and in test [11] was greater than 100 µM each time.

Consider `Cc1cc(C)n(-c2nsc3ccccc23)n1`, for which the TGI in test [8], in test [1], in test [9], in test [2], in test [10] and in [4] was greater than 100 µM each time. The TGI in [5], in [6], in [7] and in test [12] was greater than 100 µM in each case.

`CC(=O)OCC1=C(C(=O)O)N2C(=O)C(NC(=O)CSc3ccncc3)C2SC1` (stereo not drawn): the TGI in test [1], in [13], in [2], in test [3], in test [4] and in [5] was greater than 100 µM throughout. Further, the TGI in [7] and in test [12] was greater than 100 µM each time.

Take `CCOC(=O)NC(Nc1ncccn1)(C(=O)OCC)C(F)(F)F` (stereo not drawn): the TGI in test [1], in [13], in test [2], in test [5], in test [6] and in [7] was greater than 100 µM throughout. Besides, the TGI in test [12] was greater than 100 µM.

Take `CCN(CC)CCNc1ccc2nnn3c4ccc(C)cc4c(=O)c1c23`: the TGI is 27.8 µM in test [8]; 21.3 µM in test [1]; 34.9 µM in test [13]; 26.1 µM in [10]; 23.9 µM in [3]; 28.9 µM in test [4]. Besides, the TGI in test [5] was determined as 25.6 µM; in [6], 28.8 µM; in test [7] it was 27.4 µM; in test [11], 25.9 µM; in test [12] it was 20.6 µM.

Take `O=C1CSC(=S)N1`: the TGI in test [1], in test [13], in test [2], in test [3], in [4] and in [5] was greater than 100 µM throughout. Further, the TGI in test [6], in test [7] and in test [12] was greater than 100 µM in each case.

Regarding `O=C1NC2=C(CCCC/C2=N\O)C12CCCCC2`, the TGI in [8], in test [1], in test [2], in [10], in test [3] and in test [4] was greater than 100 µM each time. In addition, the TGI in [6], in [7] and in [11] was greater than 100 µM in each case.

For the compound `Fc1ccc(C2CC(c3cccc(Nc4ccncc4)c3)=NN2c2ccc(Cl)cc2)cc1` (stereo not drawn), the GI50 was 1.61 µM in test [1]; 1.39 µM in [13]; 1.55 µM in test [2]; 3.12 µM in test [5]; 1.74 µM in [6]; 1.65 µM in test [7]. For the same compound, the TGI in test [1] came to 2.96 µM; in test [13], 2.71 µM; in test [2], 2.96 µM; in test [5], 9.87 µM; in test [6], 3.37 µM; in [7], 3.07 µM.

Take `Cc1ccc2c(c1)C(=O)N(N(C)C)CC(=O)N2`: the TGI in test [8], in [1], in test [9], in [13], in test [2] and in test [10] was greater than 100 µM throughout. Besides, the TGI in test [3], in test [4], in test [5], in test [6], in test [7] and in [11] was greater than 100 µM in each case. This compound also displayed a TGI in test [12] greater than 100 µM.

Values taken from PubChem BioAssay (NCI).
